Assay results: US10420737B2, “Hepatotoxicity-free pharmaceutical composition containing acetaminophen drugs” (NATIONAL DEFENSE EDUCATION AND RESEARCH FOUNDATION, priority 2013, dated 2019)
Where “and” joins values, the source holds several entries; their conditions need not be identical. Identical values can stand only once. Entries after “also recorded” stand apart in the source; their conditions may differ. Blank lines part the entries; values can stand above or below the molecule they belong to.

Assays:
[1] = system: Male SD (Sprague-Dawley) rats; experiment: APAP-induced hepatotoxicity in rats: histological liver tissue sections (Total HAI-score); conditions: for liver tissue sections, hepatocyte morphology (in words): liver protection groups + APAP 1000 mg/kg, H&E stain 200×, FIG. 2
[2] = system: Male SD (Sprague-Dawley) rats; experiment: APAP-induced hepatotoxicity in rats: plasma AST and ALT activity; format: in vivo, rat; conditions: for improvement of APAP liver damage (AST, ALT, GSP and Total HAI-score, in words): combined with APAP 1000 mg/kg, versus APAP hepatotoxicity group
Description: After completion of the treatments, rats were sacrificed under ether anesthesia, and blood was collected from the tail artery of the rats and placed in a test tube containing EDTA. The plasma was centrifuged at 13,000 at 4° C. for 15 minutes and the isolated plasma was transferred to Eppendorf tubes in aliquots and stored at −80° C.
Liver damage is quantified by measuring plasma AST and ALT activity. AST and ALT are common indicators of hepatotoxicity and are measured by using the Synchron LXi 725 system (Beckman Instruments, U.S.).

[3] = target: Cytochrome P450 2E1 (CYP2E1) (Rattus norvegicus, UniProt P05182); experiment: In-vitro screening of CYP2E1 inhibitors in rat liver microsomes (chlorzoxazone 6-hydroxylation)
Excerpt: (§1) This example is preparation of microsomes from rat and human liver for in vitro screening of CYP2E1 inhibitors. A total of 55 safe and edible excipients are included in the screening for cytochrome P450 2E1 (CYP2E1) inhibitors. […] After addition of the test sample, the amount of CYP2E1 metabolite standard 6-OH—CZX (6-Hydroxy-Chlorzoxazone) is used for calculation of the CYP 2E1 inhibition ratio of the test sample by using the amount of 6-OH—CZX of the control group as the baseline.
(§2) Transfer to and pre-incubate the reaction mixture in a water bath at 37° C. for 1 minute. […] Incubate the sample for 1 minute and add internal standard (5 ug/mL 4-hydroxy-tobutamide).

[4] = target: Cytochrome P450 2E1 (CYP2E1) (Homo sapiens, UniProt P05181); experiment: In-vitro screening of CYP2E1 inhibitors in human liver microsomes (chlorzoxazone 6-hydroxylation)
Excerpt: as §1, §2

[5] = system: Male SD (Sprague-Dawley) rats; experiment: APAP-induced hepatotoxicity in rats: galactose single point (GSP) residual liver function test; format: in vivo, rat; conditions: excipient 1.67 mg/kg + APAP 1000 mg/kg, single oral dose
Description: After the study was completed, all rats were subjected to GSP test. Rats were i.v. injected with 0.4 g/ml BW galactose solution 0.5 g/kg within 30 seconds and one blood sample was collected at 5, 10, 15, 30, 45 and 60 minutes post injection from the tail vein. Colorimetric galactose dehydrogenase is used to quantify the concentration of galactose and the test concentration ranges from 50 to 1,000 μg/ml. The within-day variation of each concentration is calculated using standard deviation and coefficient of variation (CV) and the maximum allowable coefficient of variation is 10% CV, whereas day-to-day variation is examined by comparing the slope and intercept of calibration curves. The GSP is the blood galactose concentration obtained 60 seconds after stopping the 30-second injection.

[6] = APAP alone, single oral dose 1000 mg/kg, plasma, mean ± SD, 1000 mg/kg
[7] = rat liver microsomes, test concentration 16.5 μM
[8] = rat liver microsomes, test concentration 33 μM
[9] = rat liver microsomes, test concentration 66 μM
[10] = human liver microsomes, test concentration 16.5 μM
[11] = human liver microsomes, test concentration 33 μM
[12] = human liver microsomes, test concentration 66 μM
[13] = excipient 1.67 mg/kg + APAP 1000 mg/kg, single oral dose
[14] = rat, microsomes, 30 min, 16.5 μM, pH 7.4
[15] = rat, microsomes, 30 min, 33 μM, pH 7.4
[16] = rat, microsomes, 30 min, 66 μM, pH 7.4

Sequence of Cytochrome P450 2E1 (CYP2E1) (Homo sapiens, UniProt P05181) (P05181 whole entry): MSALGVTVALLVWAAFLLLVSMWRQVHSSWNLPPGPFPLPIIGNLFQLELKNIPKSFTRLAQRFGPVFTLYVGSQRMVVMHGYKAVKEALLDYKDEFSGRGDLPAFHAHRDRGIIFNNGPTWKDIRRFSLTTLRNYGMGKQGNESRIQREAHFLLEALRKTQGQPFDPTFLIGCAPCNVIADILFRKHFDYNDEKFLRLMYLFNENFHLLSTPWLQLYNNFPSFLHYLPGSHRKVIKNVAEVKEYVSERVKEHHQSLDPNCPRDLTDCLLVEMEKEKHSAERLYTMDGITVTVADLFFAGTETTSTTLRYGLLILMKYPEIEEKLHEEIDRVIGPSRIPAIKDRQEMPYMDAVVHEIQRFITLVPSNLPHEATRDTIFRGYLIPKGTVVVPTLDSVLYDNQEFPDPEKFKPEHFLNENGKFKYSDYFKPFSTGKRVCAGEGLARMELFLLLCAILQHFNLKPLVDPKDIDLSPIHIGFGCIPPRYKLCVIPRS
Sequence of Cytochrome P450 2E1 (CYP2E1) (Rattus norvegicus, UniProt P05182) (P05182 whole entry): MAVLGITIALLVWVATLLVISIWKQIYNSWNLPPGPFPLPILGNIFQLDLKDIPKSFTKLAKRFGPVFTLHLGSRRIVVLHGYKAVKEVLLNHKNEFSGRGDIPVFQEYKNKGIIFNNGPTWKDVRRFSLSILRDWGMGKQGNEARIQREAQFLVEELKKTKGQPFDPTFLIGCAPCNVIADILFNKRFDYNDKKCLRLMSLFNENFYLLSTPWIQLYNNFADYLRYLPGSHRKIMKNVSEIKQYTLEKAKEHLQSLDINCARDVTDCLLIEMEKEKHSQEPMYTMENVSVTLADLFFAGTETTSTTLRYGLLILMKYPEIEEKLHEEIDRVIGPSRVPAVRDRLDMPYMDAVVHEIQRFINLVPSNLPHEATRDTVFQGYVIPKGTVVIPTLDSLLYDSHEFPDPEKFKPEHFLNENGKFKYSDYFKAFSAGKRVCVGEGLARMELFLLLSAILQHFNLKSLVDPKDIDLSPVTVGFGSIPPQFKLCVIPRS

- CYP 2E1 inhibition ratio ([3]; rat, microsomes, 30 min, 0.024 %, pH 7.4): 8.2 ± 2.0%
- CYP 2E1 inhibition ratio ([3]; rat, microsomes, 30 min, 0.084 % (w/v), pH 7.4): 6.7 ± 1.0%
- CYP 2E1 inhibition ratio ([3]; rat, microsomes, 30 min, 0.167 % (w/v), pH 7.4): −10.3 ± 6.3%
Compound: OCc1ccccc1 [Benzyl alcohol]

- CYP 2E1 inhibition ratio ([3]; rat liver microsomes, test concentration 10 μM): 8.6 ± 1.1%
- CYP 2E1 inhibition ratio ([3]; rat liver microsomes, test concentration 50 μM): 50.4 ± 1.1%
- CYP 2E1 inhibition ratio ([3]; rat liver microsomes, test concentration 100 μM): 89.2% and 89.2 ± 2.2%
- CYP 2E1 inhibition ratio ([4]; human, microsomes, 30 min, 10 μM, pH 7.4): 7.3 ± 1.0%
- CYP 2E1 inhibition ratio ([4]; human, microsomes, 30 min, 50 μM, pH 7.4): 49.8 ± 2.9%
- CYP 2E1 inhibition ratio ([4]; human, microsomes, 30 min, 100 μM, pH 7.4): 89.6 ± 0.9%
Compound: CCN(CC)C(=S)S [DDTC, Diethyldithiocarbamic acid, reference compound]

- CYP 2E1 inhibition ratio [3, 14]: 3.1 ± 0.2%
- CYP 2E1 inhibition ratio [3, 15]: 3.1 ± 2.5%
- CYP 2E1 inhibition ratio [3, 16]: 8.2 ± 2.0%
Compound: CCCCCCCCCCCCCCCCCCCCCC(=O)OCC(O)CO (stereo not drawn) [Glyceryl behenate]

The next lines start with the molecule.

Compound: CC(=O)Nc1ccc(O)cc1 [APAP, N-acetyl-para-aminophenol, reference compound]
- Total HAI-score ([1]; APAP alone, single oral dose 1000 mg/kg, mean ± SD): 4.9 ± 1.8
- ALT [2, 6]: 368±71 IU/L
- AST [2, 6]: 499±112 IU/L

Compound: CC1=CC(=O)NS(=O)(=O)O1 [Acesulfame potassium]
- CYP 2E1 inhibition ratio [3, 7]: 3.9 ± 2.7%
- CYP 2E1 inhibition ratio [3, 8]: 7.1 ± 2.3%
- CYP 2E1 inhibition ratio [3, 9]: 14.5 ± 1.9%

Compound: O=C(O)CC(O)(CC(=O)O)C(=O)O [Citric acid]
- CYP 2E1 inhibition ratio [3, 7]: 7.5 ± 2.3%
- CYP 2E1 inhibition ratio [3, 8]: 12.4 ± 2.2%
- CYP 2E1 inhibition ratio [3, 9]: 27.6 ± 3.6%
- CYP 2E1 inhibition ratio [4, 10]: 9.9 ± 3.1%
- CYP 2E1 inhibition ratio [4, 11]: 15.5 ± 1.5%
- CYP 2E1 inhibition ratio [4, 12]: 20.5 ± 1.8%

Compound: O.O.O=P([O-])([O-])O.[Ca+2] [Dicalcium phosphate dihydrate]
- Total HAI-score [1, 13]: 3.1 ± 1.1
- liver tissue sections, hepatocyte morphology (in words) ([1]; single oral dose): except for the dicalcium phosphate group
- GSP ([5]; phosphate dihydrate): 444 ± 60 mg/L
- CYP 2E1 inhibition ratio [3, 7]: 55.0 ± 4.6%
- CYP 2E1 inhibition ratio [3, 8]: 62.0 ± 2.6%
- CYP 2E1 inhibition ratio [3, 9]: 76.7 ± 0.8%
- CYP 2E1 inhibition ratio [4, 10]: 31.2 ± 2.9%
- CYP 2E1 inhibition ratio [4, 11]: 56.8 ± 2.2%
- CYP 2E1 inhibition ratio [4, 12]: 60.1 ± 0.3%
- improvement of APAP liver damage (AST, ALT, GSP and Total HAI-score, in words) [2]: not as expected
- ALT [2, 13]: 196 ± 65 IU/L
- AST [2, 13]: 315 ± 42 IU/L

Compound: O.OC[C@H]1O[C@@H](O[C@H]2[C@H](O)[C@@H](O)C(O)O[C@@H]2CO)[C@H](O)[C@@H](O)[C@H]1O (stereo partly drawn) [Lactose monohydrate]
- CYP 2E1 inhibition ratio [3, 14]: 3.9 ± 2.3%
- CYP 2E1 inhibition ratio [3, 15]: 7.8 ± 2.2%
- CYP 2E1 inhibition ratio [3, 16]: 8.7 ± 3.8%

Compound: OC[C@@H](O)[C@@H](O)[C@H](O)[C@H](O)CO [Mannitol]
- Total HAI-score [1, 13]: 0.8 ± 0.3
- liver tissue sections, hepatocyte morphology (in words) ([1]; single oral dose): more intact around the central vein and have a apparent nucleus with less vacuolization; also recorded: hepatocytes are relatively intact with visible nucleus and less vacuolization
- GSP [5]: 253 ± 29 mg/L
- CYP 2E1 inhibition ratio [3, 14]: 40.9 ± 2.8%
- CYP 2E1 inhibition ratio [3, 15]: 51.0 ± 2.7%
- CYP 2E1 inhibition ratio [3, 16]: 60.6 ± 3.3%
- CYP 2E1 inhibition ratio ([4]; human, microsomes, 30 min, 16.5 μM, pH 7.4): 44.8 ± 1.8%
- CYP 2E1 inhibition ratio ([4]; human, microsomes, 30 min, 33 μM, pH 7.4): 51.2 ± 2.1%
- CYP 2E1 inhibition ratio ([4]; human, microsomes, 30 min, 66 μM, pH 7.4): 54.5 ± 4.2%
- improvement of APAP liver damage (AST, ALT, GSP and Total HAI-score, in words) [2]: significant decrease
- ALT [2, 13]: 79 ± 34 IU/L
- AST [2, 13]: 201 ± 30 IU/L
